In patent US9440982B2 (Eolas Therapeutics, Inc., priority 2012, dated 2016):
Like-named read-outs stand apart in the source and are kept apart here.

Columns and labels:
OX2 = target: T1, OX2 (Homo sapiens, UniProt O43614); test: Orexin receptor cell-based functional assay, [Ca2+]i by FLIPR, CHO-OX2 cells
T1 construct: expressed in transfected cells; host or cells: CHO (CHO-OX2, kept under selection antibiotic)
T1 sequence (O43614 1-444): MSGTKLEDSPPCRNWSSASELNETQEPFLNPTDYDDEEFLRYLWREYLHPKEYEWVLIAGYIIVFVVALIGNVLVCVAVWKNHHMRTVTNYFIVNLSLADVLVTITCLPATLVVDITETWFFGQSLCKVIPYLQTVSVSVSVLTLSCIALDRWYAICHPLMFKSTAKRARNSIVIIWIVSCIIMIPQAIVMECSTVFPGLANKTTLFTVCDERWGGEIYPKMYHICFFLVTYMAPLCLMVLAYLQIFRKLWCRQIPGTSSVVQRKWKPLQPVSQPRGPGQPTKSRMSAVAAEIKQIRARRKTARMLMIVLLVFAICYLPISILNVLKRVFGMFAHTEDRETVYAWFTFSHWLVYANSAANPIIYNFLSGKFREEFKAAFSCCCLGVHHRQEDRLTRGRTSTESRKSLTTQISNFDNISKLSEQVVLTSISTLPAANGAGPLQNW
Description: Measurement of [Ca^2+]i using a FLIPR: CHO—OX1 or CHO—OX2 cells are seeded into black-walled clear-base 384-well plates (Costar) at a density of 20,000 cells per well in F12-K medium supplemented with 10% FBS and selection antibiotic (500 ug/ml G418 or 15 ug/ml Blasticidin) and cultured overnight. The cells are incubated with equal volume of calcium4 loading buffer (Molecular Devices, Inc.) containing 2.5 mM probenecid at 37° C. for 30 min, followed by putative OX1 or OX2 receptor antagonists (dose-range 0.1 nM-10 μM) for another 30 min.
The cells are incubated with equal volume of calcium6 loading buffer (Molecular Devices, Inc.) containing 2.5 mM probenecid at 37° C. for 2 h, followed by test compounds (dose-range 0.1 nM-10 μM) for another 30 min.

OX1 = target: T2, OX1 (Homo sapiens, UniProt O43613); test: Orexin receptor cell-based functional assay, [Ca2+]i by FLIPR, CHO-OX1 cells; conditions: CHO-OX1 cells, EC90 of OXA
T2 construct: expressed in transfected cells; host or cells: CHO (CHO-OX1, kept under selection antibiotic)
T2 sequence (O43613 1-425): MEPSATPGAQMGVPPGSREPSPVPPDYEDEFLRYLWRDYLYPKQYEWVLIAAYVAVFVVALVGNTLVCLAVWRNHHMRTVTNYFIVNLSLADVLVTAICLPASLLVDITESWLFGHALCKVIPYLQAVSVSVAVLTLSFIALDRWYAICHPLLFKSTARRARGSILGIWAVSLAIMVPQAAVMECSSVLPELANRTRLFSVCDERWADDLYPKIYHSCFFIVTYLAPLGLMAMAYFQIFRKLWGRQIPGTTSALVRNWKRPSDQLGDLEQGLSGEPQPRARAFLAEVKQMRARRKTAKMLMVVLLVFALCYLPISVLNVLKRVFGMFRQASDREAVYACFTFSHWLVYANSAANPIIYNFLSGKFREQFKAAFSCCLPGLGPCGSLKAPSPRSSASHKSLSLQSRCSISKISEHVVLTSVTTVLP
In short: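 Antagonist mode FLIPR calcium read in CHO-OX1 and CHO-OX2 lines. Test compounds, dosed 0.1 nM-10 μM, preincubated 30 min after 37° C dye loading with 2.5 mM probenecid (calcium4 for 30 min or calcium6 for 2 h).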

CYP3A4 = target: T3, CYP3A4 (Homo sapiens, UniProt P08684); test: Cytochrome P450 inhibition assay (midazolam hydroxylation); type: in vitro ADME; conditions: human, human liver microsomes, probe midazolam (hydroxylation to 1′-hydroxymidazolam), 10 μM test compound, midazolam at approximately its Km
T3 construct: pre-incubated with human liver microsomes and NADPH; from tissue; host or cells: human liver microsomes
In short: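 Percent inhibition of midazolam 1′-hydroxylation by 10 μM compound was measured, midazolam dosed at about Km. Time-dependent inhibition was probed by a 30 min preincubation of compound with human liver microsomes and NADPH ahead of substrate, compared against samples without preincubation.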

[1] = [Ca2+]i by FLIPR, antagonist dose-range 0.1 nM-10 μM, EC90 of OXA, read-out: OX2
[2] = [Ca2+]i by FLIPR, antagonist dose-range 0.1 nM-10 μM, read-out: OX1

T3 sequence (P08684 whole entry): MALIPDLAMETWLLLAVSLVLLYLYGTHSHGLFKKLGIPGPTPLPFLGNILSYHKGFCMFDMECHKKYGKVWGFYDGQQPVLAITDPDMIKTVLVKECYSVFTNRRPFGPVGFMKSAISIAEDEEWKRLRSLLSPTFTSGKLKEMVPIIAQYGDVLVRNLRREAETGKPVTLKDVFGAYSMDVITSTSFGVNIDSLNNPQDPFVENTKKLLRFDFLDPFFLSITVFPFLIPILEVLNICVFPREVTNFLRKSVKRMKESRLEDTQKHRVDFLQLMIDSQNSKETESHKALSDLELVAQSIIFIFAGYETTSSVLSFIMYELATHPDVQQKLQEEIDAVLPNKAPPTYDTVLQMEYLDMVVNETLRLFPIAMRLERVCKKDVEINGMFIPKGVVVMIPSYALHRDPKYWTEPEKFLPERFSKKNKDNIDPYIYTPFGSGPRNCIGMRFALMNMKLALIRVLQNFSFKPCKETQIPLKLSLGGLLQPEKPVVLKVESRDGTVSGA

Row | Structure (SMILES) | IC50 (OX2; Table 2, EC90 of OXA, read-out: IC50 Bioactivity OX2) [µM] | IC50 (OX1; Table 2, read-out: IC50 Bioactivity OX1) [µM] | IC50 (OX2; [1]) [µM] | IC50 (OX1; [2]) [µM] | inhibition at 10 µM (CYP3A4) [%]
1 | Cc1ccc(-c2cnn(C)c2)c(C(=O)N2CC3CCCC3C2CNc2nc3cc(Cl)ccc3o2)c1 (stereo not drawn) [Example A70, (1-(((5-Chlorobenzo[d]oxazol-2-yl)amino)methyl)hexahydrocyclopenta[c]pyrrol-2(1H)-yl)(5-methyl-2-(1-methyl-1H-pyrazol-4-yl)phenyl)methanone] | – | – | 7.8 | 2.5 | –
2 | Cc1ccc(-n2cnc(C(F)(F)F)n2)c(C(=O)N2CC3CCCC3C2CNc2nc3cc(Cl)ccc3o2)c1 (stereo not drawn) [Example A72, (1-(((5-Chlorobenzo[d]oxazol-2-yl)amino)methyl)hexahydrocyclopenta[c]pyrrol-2(1H)-yl)(5-methyl-2-(3-(trifluoromethyl)-1H-1,2,4-triazol-1-yl)phenyl)methanone] | – | – | 3.9 | 2.4 | –
3 | C[C@@H]1CCCN(C(=O)c2ccc(F)cc2-c2ncccn2)[C@@H]1CNc1ccc(C(F)(F)F)cn1 [Example A234, (4-Fluoro-2-(pyrimidin-2-yl)phenyl)((2S,3R)-3-methyl-2-(((5-(trifluoromethyl)pyridin-2-yl)amino)methyl)piperidin-1-yl)methanone] | – | – | > 5 | 0.011 | –
4 | C[C@@H]1CCCN(C(=O)c2ccc(F)cc2-c2ncccn2)[C@@H]1CNc1ncc(C(F)(F)F)cn1 [Example A235, (4-Fluoro-2-(pyrimidin-2-yl)phenyl)((2S,3R)-3-methyl-2-(((5-(trifluoromethyl)pyrimidin-2-yl)amino)methyl)piperidin-1-yl)methanone] | – | – | 2.4 | 0.012 | –
5 | Cc1cccc(-n2nccn2)c1C(=O)N1CCC[C@@H](C)[C@H]1CNc1ncc(C(F)(F)F)cn1 [Example A264, ((2S,3R)-3-Methyl-2-(((5-(trifluoromethyl)pyrimidin-2-yl)amino)methyl)piperidin-1-yl)(2-methyl-6-(2H-1,2,3-triazol-2-yl)phenyl)methanone] | – | – | > 5 | 0.023 | –
6 | Cc1ccc(-c2ncccn2)c(C(=O)N2CCC[C@@H](C)[C@H]2CNc2ncc(C(F)(F)F)cn2)c1F [Example A321] | – | – | > 5 | 0.008 | –
7 | C[C@@H]1CCCN(C(=O)c2cc(C#N)ccc2-n2nccn2)[C@@H]1CNc1ncc(C(F)(F)F)cn1 [Example A322, 3-((2S,3R)-3-Methyl-2-(((5-(trifluoromethyl)pyrimidin-2-yl)amino)methyl)piperidine-1-carbonyl)-4-(2H-1,2,3-triazol-2-yl)benzonitrile] | – | – | – | 0.011 | 40
8 | Cc1ccc(C(=O)N2CCC[C@@H](C)[C@H]2CNc2ncc(C(F)(F)F)cn2)c(-c2ncccn2)c1 [Example A340, ((2S,3R)-3-Methyl-2-(((5-(trifluoromethyl)pyrimidin-2-yl)amino)methyl)piperidin-1-yl)(4-methyl-2-(pyrimidin-2-yl)phenyl)methanone] | – | – | > 5 | 0.002 | –
9 | Cc1ccc(F)c(C(=O)N2CCC[C@@H](C)[C@H]2CNc2ncc(C(F)(F)F)cn2)c1-n1nccn1 [Example A353, (6-fluoro-3-methyl-2-(2H-1,2,3-triazol-2-yl)phenyl)((2S,3R)-3-methyl-2-(((5-(trifluoromethyl)pyrimidin-2-yl)amino)methyl)piperidin-1-yl)methanone] | – | – | > 5 | 0.004 | –
10 | Cc1ccc(C(=O)N2CCC[C@@H](C)[C@H]2CNc2ccc(C(F)(F)F)cn2)c(-c2ncccn2)c1F [Example A358, (3-fluoro-4-methyl-2-(pyrimidin-2-yl)phenyl)((2S,3R)-3-methyl-2-(((5-(trifluoromethyl)pyridin-2-yl)amino)methyl)piperidin-1-yl)methanone] | – | – | – | 0.005 | 83
11 | Cc1cc(-n2nccn2)c(C(=O)N2CCC[C@@H](C)[C@H]2CNc2ccc(C(F)(F)F)cn2)cc1F [Example A360, (5-Fluoro-4-methyl-2-(2H-1,2,3-triazol-2-yl)phenyl)((2S,3R)-3-methyl-2-(((5-(trifluoromethyl)pyridin-2-yl)amino)methyl)piperidin-1-yl)methanone] | – | – | > 5 | – | –

Second part, the compound after the results:

Row | IC50 (OX2; Table 2, EC90 of OXA, read-out: IC50 Bioactivity OX2) [µM] | IC50 (OX1; Table 2, read-out: IC50 Bioactivity OX1) [µM] | IC50 (OX2; [1]) [µM] | IC50 (OX1; [2]) [µM] | inhibition at 10 µM (CYP3A4) [%] | Structure (SMILES)
12 | 0.5 | 0.003 | – | – | – | Cc1ccc(-n2cccn2)c(C(=O)N2CCC[C@@H](C)[C@H]2CNc2ccc(C(F)(F)F)cn2)c1 (racemic) [Example 120, rac-cis-(3-Methyl-2-(((5-(trifluoromethyl)pyridin-2-yl)amino)methyl)piperidin-1-yl)(5-methyl-2-(1H-pyrazol-1-yl)phenyl)methanone]
13 | – | – | 3.36 | 0.25 | – | Cc1ccc(-n2nccn2)c(C(=O)N2CC3CCCC3C2CNc2nc3cc(Cl)ccc3o2)c1 (stereo not drawn) [Example A68, (1-(((5-Chlorobenzo[d]oxazol-2-yl)amino)methyl)hexahydrocyclopenta[c]pyrrol-2(1H)-yl)(5-methyl-2-(2H-1,2,3-triazol-2-yl)phenyl)methanone]
14 | – | – | > 5 | 0.008 | – | Cc1cccc(-n2nccn2)c1C(=O)N1CCC[C@@H](C)[C@H]1CNc1ccc(C(F)(F)F)cn1 [Example A265, ((2S,3R)-3-Methyl-2-(((5-(trifluoromethyl)pyridin-2-yl)amino)methyl)piperidin-1-yl)(2-methyl-6-(2H-1,2,3-triazol-2-yl)phenyl)methanone]
15 | – | – | > 5 | 0.009 | – | Cc1ccc(C(=O)N2CCC[C@@H](C)[C@H]2CNc2ccc(C(F)(F)F)cn2)c(-c2ncccn2)c1 [Example A305, ((2S,3R)-3-Methyl-2-(((5-(trifluoromethyl)pyridin-2-yl)amino)methyl)piperidin-1-yl)(4-methyl-2-(pyrimidin-2-yl)phenyl)methanone]
16 | – | – | 1.4 | 0.002 | – | Cc1ccc(-c2ncccn2)c(C(=O)N2CCC[C@@H](C)[C@H]2CNc2ccc(C(F)(F)F)cn2)c1F [Example A320, (2-Fluoro-3-methyl-6-(pyrimidin-2-yl)phenyl)((2S,3R)-3-methyl-2-(((5-(trifluoromethyl)pyridin-2-yl)amino)methyl)piperidin-1-yl)methanone]
17 | – | – | – | 0.01 | 39 | C[C@@H]1CCCN(C(=O)c2cc(C#N)ccc2-c2ncccn2)[C@@H]1CNc1ncc(C(F)(F)F)cn1 [Example A323, 3-((2S,3R)-3-Methyl-2-(((5-(trifluoromethyl)pyrimidin-2-yl)amino)methyl)piperidine-1-carbonyl)-4-(pyrimidin-2-yl)benzonitrile]
18 | – | – | > 5 | – | – | C[C@@H]1CCCN(C(=O)c2cc(F)cc(F)c2-n2nccn2)[C@@H]1CNc1ccc(C(F)(F)F)cn1 [Example A328, (3,5-Difluoro-2-(2H-1,2,3-triazol-2-yl)phenyl)((2S,3R)-3-methyl-2-(((5-(trifluoromethyl)pyridin-2-yl)amino)methyl)piperidin-1-yl)methanone]
19 | – | – | 1.5 | 0.004 | – | Cc1ccc(F)c(C(=O)N2CCC[C@@H](C)[C@H]2CNc2ccc(C(F)(F)F)cn2)c1-n1nccn1 [Example A352, (6-Fluoro-3-methyl-2-(2H-1,2,3-triazol-2-yl)phenyl)((2S,3R)-3-methyl-2-(((5-(trifluoromethyl)pyridin-2-yl)amino)methyl)piperidin-1-yl)methanone]
